These results are taken from US8173695B2, “Kappa selective opioid receptor antagonist” (Eli Lilly and Company, priority 2008, dated 2012).

What all share (format): in vivo
A short description of data set [1]: Brain (striatum) exposure levels after oral dosing, LC/MS/MS. The settings on record: male, Sprague Dawley (Harlan), rat striatum. How it is done: Male Harlan Sprague Dawley rats are treated with the compound of Example 1A of the present invention using a 3% lactic acid/water oral formulation at doses of […], 0.3, 1, 3, 10 and 30 mg/kg. […] The increasing levels of kappa receptor occupancy are driven by roughly proportional increases in plasma and brain exposure of the compound of Example 1A of the present invention up to a dose of 30 mg/kg.
Exposure levels of the compound of Example 1A in the rat striatum following administration were determined in the same samples used to quantify the level of opioid receptor occupancy. Levels of Example 1A are detected by LC/MS/MS (API 4000, MDS Sciex) and quantified from a standard curve of Example 1A prepared in rat brain homogenate.

For data set [2], the system named is P rats. As to the kind of experiment: P rat progressive ratio responding for ethanol. The settings on record: 10 mg/kg p.o. 60 min prior to testing, p<0.05 versus vehicle. On the procedure: This test assesses the motivation to work for access to ethanol in P rats following ethanol abstinence. This animal model simulates ethanol craving.
Female P rats (Indiana University Medical Center, Indianapolis, Ind., USA) are pair-housed in an environmentally controlled facility and maintained on a 12 h light/dark cycle (lights on at 0600 hours).
Compounds are solubilized in sterile water by the dropwise addition of 85% lactic acid, mixed freshly prior to use, and administered in a volume of 1 mL/kg. Unless otherwise stated, compounds are administered p.o. 60 min prior to the experimental session. Doses are assigned using a counterbalanced, within-subject design (n=8-11 per experiment).
In order to reduce novelty-induced avoidance of ethanol (EtOH), the water bottle on the homecage is replaced with a bottle containing 15% EtOH (v/v; Ancare, Bellmore, N.Y.) for two days prior to operant training. Throughout the rest of the experiment, rats are allowed ad libitum access to water and standard laboratory chow in the homecage.
Daily 60-min sessions are conducted in standard rat operant chambers, housed within sound-attenuating chambers (MED Associates, Inc., St. Albans, Vt., USA). The 0.5 cm diameter stainless steel bars of the floor grid of the operant chambers are positioned approximately 1.5 cm apart. Two retractable operant levers in each operant chamber are located approximately 15 cm above the grid floor and 13 cm apart. A recessed trough is located in the space between the levers, through which a dipper cup (0.1 mL capacity) is raised to deliver response-contingent ethanol (15% EtOH, v/v). Upon a reinforced response, a stimulus light is illuminated during the 4-sec dipper cup access. Operation of the stimuli and behavioral responses are controlled and recorded by personal computer for offline analysis. At the end of each session, all stimuli are turned off and levers are retracted.
Rats are trained to press a lever for EtOH reinforcement. Initially, responses on either lever are considered correct responses and are rewarded with reinforcement. […]

Data set [3] deals with Male Fischer F-344 rats. As to the kind of experiment: Stress-induced hyperthermia (in rat). The settings on record: for stress-induced hyperthermia (T2−T1): in °C.
The test system of data set [4] is alcohol preferring (P) rats. Nature of the data set: P rat 12 hr ethanol drinking. The settings on record: p<0.05 versus vehicle. How it is done: The test animals are selectively-bred alcohol preferring (P) rats. These rats voluntarily consume more than 5 g/kg of ethanol per day and meet all of the perceived criteria for an animal model of alcoholism. They attain blood alcohol contents between 50-200 mg %; they will operant respond to obtain ethanol; they consume ethanol for pharmacological effects and not taste, smell or caloric properties; and they develop metabolic and physiological tolerance and eventually dependence with chronic ethanol access.
Female P rats are obtained from a breeding facility at the Indiana University Medical Center in Indianapolis, Ind., USA. Rats are individually housed in an environmentally controlled facility and maintained on a 12 hr light/dark cycle (lights off at 1500 hours).
All drugs are mixed fresh prior to use and administered in a volume of 1 mL/kg. […]
Following a 4-day acclimation to the colony, rats receive homecage access to a bottle of EtOH (10% v/v; Ancare, Bellmore, N.Y.) in addition to the standard bottle of water. […] Consumption of EtOH and water are monitored for approximately 6-9 months prior to drug testing. Food and fluid intake are measured via force transduction with a PC-controlled Drinking & Feeding Monitoring System (TSE Systems, Bad Homburg, Germany). Consumption of food, water, and 15% (v/v) EtOH are continuously monitored for 12 hrs following drug or vehicle administration. […]

Data set [5] has as its target T1, mu receptors (striatum) (Rattus norvegicus, UniProt P33535).
T1 construct: from tissue; host or cells: striatum of living Sprague Dawley rats
As to the kind of experiment: Opioid receptor occupancy (RO) in rat brain, tracer naltrexone.

For data set [6], the target named is T2, delta receptors (striatum) (Rattus norvegicus, UniProt P33533).
T2 construct: from tissue; host or cells: striatum of living Sprague Dawley rats
As to the kind of experiment: Opioid receptor occupancy (RO) in rat brain, tracer naltriben.

Data set [7] concerns the target T3, kappa receptors (striatum) (Rattus norvegicus, UniProt P34975).
T3 construct: dose-dependent level of kappa receptor occupancy in the striatum; from tissue; host or cells: striatum of living Sprague Dawley rats
Nature of the data set: Opioid receptor occupancy (RO) in rat brain, tracer GR103545. The settings on record: 5.5 hrs following oral administration.

The mark [8] stands for this setting: Study 1, 1, 3 and 10 mg/kg p.o.

T1 sequence (P33535 whole entry): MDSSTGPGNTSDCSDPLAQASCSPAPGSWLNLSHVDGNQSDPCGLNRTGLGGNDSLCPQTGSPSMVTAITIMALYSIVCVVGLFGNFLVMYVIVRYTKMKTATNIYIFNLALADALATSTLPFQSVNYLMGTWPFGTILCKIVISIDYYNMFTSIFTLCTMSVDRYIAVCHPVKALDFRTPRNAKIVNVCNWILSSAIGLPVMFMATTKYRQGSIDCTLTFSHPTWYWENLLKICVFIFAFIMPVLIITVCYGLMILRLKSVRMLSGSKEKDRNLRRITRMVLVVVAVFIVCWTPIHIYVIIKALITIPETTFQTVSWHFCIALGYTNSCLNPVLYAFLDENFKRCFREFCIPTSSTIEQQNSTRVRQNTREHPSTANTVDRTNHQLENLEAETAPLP
T2 sequence (P33533 whole entry): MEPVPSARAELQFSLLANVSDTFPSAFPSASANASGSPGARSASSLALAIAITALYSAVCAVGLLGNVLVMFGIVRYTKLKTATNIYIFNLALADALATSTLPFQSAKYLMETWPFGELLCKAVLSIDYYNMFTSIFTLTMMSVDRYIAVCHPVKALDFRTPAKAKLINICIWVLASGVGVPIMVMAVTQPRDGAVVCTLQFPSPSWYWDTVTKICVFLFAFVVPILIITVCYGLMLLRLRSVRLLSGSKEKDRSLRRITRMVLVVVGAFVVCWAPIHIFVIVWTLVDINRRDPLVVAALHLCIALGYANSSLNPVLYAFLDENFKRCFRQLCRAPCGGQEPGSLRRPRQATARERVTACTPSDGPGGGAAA
T3 sequence (P34975 whole entry): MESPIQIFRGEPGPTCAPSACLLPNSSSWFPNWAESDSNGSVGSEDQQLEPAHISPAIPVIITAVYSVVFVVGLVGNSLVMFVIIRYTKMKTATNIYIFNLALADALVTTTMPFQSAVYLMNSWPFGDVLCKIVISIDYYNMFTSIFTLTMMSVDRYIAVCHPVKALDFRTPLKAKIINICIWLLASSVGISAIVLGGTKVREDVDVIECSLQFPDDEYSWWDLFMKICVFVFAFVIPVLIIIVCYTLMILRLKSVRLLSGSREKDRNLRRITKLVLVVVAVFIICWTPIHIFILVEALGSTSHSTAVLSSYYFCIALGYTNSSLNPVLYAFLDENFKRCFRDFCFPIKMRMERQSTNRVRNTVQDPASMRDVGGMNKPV

As to `Cc1cc(C)cc([C@@H]2CCCN2Cc2ccc(Oc3ccc(C(N)=O)cc3F)cc2)c1` (single isomer, unassigned) [Example 1A], the concentration at 5.5 h in data set [1] (0.1 mg/kg, oral dose .1 mg/kg) came out at 15.3 ng/g; in data set [1] (0.3 mg/kg, oral dose .3 mg/kg), 7.23 ng/g; in data set [1] (oral dose 1 mg/kg), 19.6 ng/g; in data set [1] (oral dose 3 mg/kg) it was 39.2 ng/g; in data set [1] (oral dose 10 mg/kg), 171 ng/g; in data set [1] (oral dose 30 mg/kg), 266 ng/g. Besides, the breakpoint result in data set [2] was “reduced”. In data set [2], the “number of active lever responses” value was “reduced”. The “quantity of ethanol consumed” value in data set [2] is “reduced”. The “stress-induced hyperthermia (T2−T1)” value was found to be 0.84±0.07 in data set [3] (Study 1, 1 mg/kg po, 60 min pretreatment, body temperature in degrees C.); 0.80±0.10 in data set [3] (Study 1, 3 mg/kg po, 60 min pretreatment); 0.75±0.11 in data set [3] (Study 1, 10 mg/kg po, 60 min pretreatment); 0.74±0.04 in data set [3] (Study 2, 10 mg/kg Example 1A alone, po). In addition, the “baseline core body temperature” value is recorded as “not affected” in data set [3] (setting [8]); “not affected” in data set [3] (Study 2, 1, 3 and 10 mg/kg p.o. together with 1 mg/kg chlordiazepoxide). The “reduction in stress-induced hyperthermia (T2−T1), in words” value in data set [3] (setting [8]) is recorded as “dose-dependent, but non-significant, reduction”. For the same compound, the “reduction in stress-induced hyperthermia, in words” value in data set [3] (Study 2, together with 1 mg/kg chlordiazepoxide, significant reduction p<0.05) is listed as “increases the efficacy of a sub-threshold dose of chlordiazepoxide”. Moreover, the “amount of ethanol consumed” value in data set [4] (1 mg/kg orally) and in data set [4] (3 mg/kg orally) was “decreased” in each case. Also, the figures for the ED50 in data set [5] (oral), in data set [6] (oral) and in data set [7] were greater than 30 mg/kg, greater than 30 mg/kg and 0.45 mg/kg, respectively. Besides, in data set [5] (oral doses up to 30 mg/kg), the mu receptor occupancy entry was “no significant occupancy”. Further, in data set [6] (oral doses up to 30 mg/kg), the delta receptor occupancy entry is “no significant occupancy”.
